# Results published in paper PMC7456776, “The utility of a differentiated preclinical liver model, HepaRG cells, in investigating delayed toxicity via inhibition of mitochondrial-replication induced by fialuridine” (Toxicology and Applied Pharmacology, 2020).
# Entries after “also recorded” stand apart in the source; their conditions may differ. Like-named read-outs stand apart in the source and are kept apart here.
# Experiments:
# HepaRG cells [1] = assay: Seahorse XFe mitochondrial stress test (oxygen consumption, extracellular acidification); format: cell-based, human
# Description: (§1) Briefly, following the dosing period, media was switched to unbuffered XF basal medium (175 μl, pH 7.4) supplemented with glucose (25 mM), L-glutamine (2 mM) and sodium pyruvate (1 mM) before incubating in a CO2 free incubator (37 °C). Oxygen consumption was measured by Seahorse XFe96 according to the previously described protocol ([Kamalian et al., 2018]).
# HepaRG cells [2] = assay: Metabolic modification assay: dual ATP and cell viability (total cellular protein) assessment, extended dosing; format: cell-based, human
# Description: In accordance with Biopredic international guidelines, undifferentiated HepaRG cells were seeded into clear flat bottomed 96 well (9000 cells/well) or Seahorse plates (4000 cells/well). They were grown for two weeks in growth media before their differentiation over 2 further weeks in differentiation media. Cells were kept at 37 °C, 5% CO2 in a humidified environment and received fresh, appropriate media twice a week. The fully differentiated cells were then used over the following four-week period, whilst being maintained in differentiation media. All experiments were performed using cells at passage number < 20.
# (§2) Differentiated HepaRG cells were treated with 0–300 μM final concentrations of FIAU (1–4 weeks). FIAU was replaced in fresh differentiation media every 3–4 days. The final concentration of DMSO was at a constant 0.5% v/v in both HepaRG and HepG2 treatments. In all experiments dosing was performed in glucose supplemented media.
# This was performed as previously described ([Kamalian et al., 2018]). […] IC50 values were calculated using Prism (GraphPad, California, USA) (Table 1) and criteria applied to identify a compound as a direct mitochondrial toxin.
# Each experiment was performed on three or more independent occasions (n ≥ 3). IC50 values were calculated using GraphPad Prism 7 software, and were expressed as a mean ± standard deviation (SD). For all other statistical analysis comparing the values obtained from treated cells to vehicle control an ANOVA was performed, with a Dunnett or Tukey post hoc analysis where appropriate. P values lower than 0.05 were considered as statistically significant for both tests.
# PHH spheroids = test system: PHH spheroids; set-up: method as in Bell et al., 2016; conditions: 3D PHH spheroids, 7 days; ref Bell et al., 2016; cited from earlier work
# HepaRG cells [3] = assay: Cellular steatosis by Oil Red O staining; format: cell-based, human; conditions: 12 μM, 4 weeks
# Description: Following drug treatment cells were washed twice in PBS and fixed in 4% paraformaldehyde (1 h, RT). Cells were then washed twice in ddH2O and incubated in isopropanol (IPA, 60% v/v, 5 min). Oil red O working solution (3:2 in ddH2O from the stock solution of 0.33% w/v in 100% IPA) was applied to the cells for 20 min. Background staining was removed by several washes with ddH2O and a 5 min wash in 60% v/v IPA. The intracellular lipid was extracted by 100% IPA after the wells were dried. The lipid content was quantified by reading the optical density at 540 nm on a Varioskan Flash (Thermo Fisher Scientific, USA).
# HepaRG cells [4] = assay: Cellular L-lactate release; format: cell-based, human; conditions: 12 μM, four-week exposure
# Description: Following incubation with drug the media from cells was transferred to a fresh 96-well plate and L-lactate levels were measured using an L-lactate assay kit as per the manufacturer's instructions.
# HepG2 cells [5] = assay: Seahorse XFe mitochondrial stress test; format: cell-based, human; conditions: HepG2, 1.3–100 μM, up to 72 h
# Description: as §1
# Figure Supp 4: The effect of FIAU on mitochondrial respiratory activity of HepG2 cells. The bioenergetic parameters of HepG2 cells following exposure to FIAU (12 µM) were calculated using Seahorse respirometry at 48 h (black bar) and 72 h (grey bar). All results are presented as % of vehicle control. Key: dashed line marks vehicle control at 100 %. n=3.
# HepG2 cells [6] = assay: Metabolic modification assay: ATP and total cellular protein, 72 h; format: cell-based, human; conditions: for Total cellular protein, % of vehicle control: HepG2, 300 μM, 3 days
# Description: HepG2 cells were cultured and maintained in DMEM media as described previously ([Kamalian et al., 2015]).
# as §2
# This was performed as previously described ([Kamalian et al., 2018]). Briefly, following the dosing period, media was switched to either “glucose” or “galactose” media for 2 h prior to measuring cellular ATP content and lactate dehydrogenase (LDH) release as a marker of cell viability, both normalised to protein content. IC50 values were calculated using Prism (GraphPad, California, USA) (Table 1) and criteria applied to identify a compound as a direct mitochondrial toxin.
# HepG2 cells [7] = test system: HepG2 cells; set-up: method as in Colacino et al., 1994; conditions: 9 days, 30 μM, ref Colacino et al., 1994; cited from earlier work
# patients = test system: patients; set-up: method as in McKenzie et al., 1995; conditions: ref McKenzie et al., 1995, cited from earlier work
# HepaRG cells [8] = assay: Mitochondrial DNA content by real-time PCR (MT-ND1 normalised to RNase P); format: cell-based, human
# Description: (§3) DNA was extracted via QIAamp DNA Mini Kit (Qiagen, Crawley, UK). Relative levels of mtDNA copy number were determined by real-time pre-designed PCR Taqman detection kits designed to target the mitochondrial MT-ND1 gene and the nuclear RNase P gene, using TAQMAN GT Master Mix. PCR reactions were performed according to standard conditions for TaqMan: 95 °C for 10 min; 40 cycles at (95 °C 15 s, 60 °C 1 min). PCR assays were performed in duplicate for each DNA sample. Analysis was undertaken with mitochondrial ND-1 normalised to genomic RNase P and treated sample to the appropriate vehicle.
# [9] = set-up: method as in Bowsher et al., 1994; conditions: healthy volunteers, 5 mg single dose; ref Bowsher et al., 1994; cited from earlier work
# HepG2 cells [10] = assay: Mitochondrial DNA content by real-time PCR; format: cell-based, human; conditions: HepG2, 1.3–100 μM, up to 72 h
# Description: as §3
# Figure Supp 3: Mitochondrial DNA content in HepG2 cells exposed to FIAU (48 and 72 h). MtDNA content was measured by real-time PCR. HepG2 cells were exposed to FIAU (10 and 100 µM) at 48 h (black bar) and 72 h (grey bar). All results are presented as % of vehicle control. n=3.
# HepaRG cells [11] = conditions: human, 12 μM
# Description: Samples were prepared for transmission electron microscopy (TEM) in 3 cm dishes as follows. Cells were fixed in 2.5% (w/v) glutaraldehyde in 0.1 M phosphate buffer (pH 7.4) before staining with reduced osmium (2% (w/v) OsO4, 1.5% (w/v) potassium ferrocyanide in ddH2O), 1% (w/v) thiocarbohydrazide, 2% OsO4 (w/v in ddH20), then 1% (w/v) aqueous uranyl acetate overnight at 4 °C. The next day samples were finally stained with Walton's lead aspartate (0.02 M lead nitrate, 0.03 M aspartic acid, pH 5.5). To prevent precipitation artefacts the cells were washed copiously with ddH2O between each staining step. […] Dehydration was in a graded ethanol series before filtration and embedding in medium premix resin (TAAB, Reading, UK).
# For TEM, 70–74 nm serial sections were cut using a UC6 ultra microtome (Leica Microsystems, Wetzlar, Germany) and collected on Formvar (0.25% (w/v) in chloroform, TAAB, Reading, UK) coated Gilder 200 mesh copper grids (GG017/C, TAAB, Reading, UK). […]
# Resultant TEM images were analysed using Image J software to measure intracellular mitochondrial features (NIH, USA). […] In brief, total mitochondria number per cell was counted as well as mitochondria area (μM^2) alongside cytosol area (calculated as total cell area minus nuclear area and vacuole area μM^2).
# [12] = test system: mitochondrial respiratory complexes I, II, IV in permeabilised HepaRG cells; assay: In-situ mito substrate assay of individual respiratory complex activity in permeabilised cells (Seahorse); format: cell-based, human; conditions: 12 μM
# Text: The assessment of individual mitochondrial complex activity was preformed using the in-situ mito substrate assay in permeabilised cells using Seahorse Technology as previously described ([Ball et al., 2016]).
# HepG2 cells [13] = test system: HepG2 cells; set-up: method as in Colacino et al., 1994; conditions: 6 days of treatment, ref Colacino et al., 1994; cited from earlier work
structure (smiles),measurement,setting,value
O=c1[nH]c(=O)n([C@@H]2O[C@H](CO)[C@@H](O)[C@H]2F)cc1I [FIAM],Mitochondrial respiration,"HepaRG cells [1]; 2 weeks, 12 μM and up to 100 μM",did not reduce mitochondrial respiration
same,Cytotoxic effects,"HepaRG cells [2]; HepaRG cells, up to 4 weeks",no cytotoxic effects
same,Cellular ATP content or cell viability compared to vehicle control,"HepaRG cells [2]; HepaRG, 4-week incubation period",no significant differences; also recorded: did not induce any decrease
"O=c1[nH]c(=O)n([C@@H]2O[C@H](CO)[C@@H](O)[C@@H]2F)cc1I [FIAU, fialuridine]",IC50,PHH spheroids,0.7 µM
same,Accumulation of intracellular lipids (oil red O),HepaRG cells [3],no accumulation of intracellular lipids
same,"Parameters of oxygen consumption (BR, ALR, MR, SRC, PL, CE)","HepaRG cells [1]; 12 μM, 1 week",no significant changes
same,"ATP-linked respiration (ALR), % of vehicle control","HepaRG cells [1]; 12 μM, 2 weeks",77.4 ± 21.5%
same,"Basal respiration (BR), % of vehicle control","HepaRG cells [1]; 12 μM, 2 weeks",85.7 ± 28.1%
same,"Maximal respiration (MR), % of vehicle control","HepaRG cells [1]; 12 μM, 2 weeks",72.0 ± 19.1%
same,Proton leak (PL) and coupling efficiency (CE),"HepaRG cells [1]; 12 μM, 2 weeks",remained unchanged
same,"Spare respiratory capacity (SRC), % of vehicle control","HepaRG cells [1]; 12 μM, 2 weeks",65.9 ± 15.5%
same,Extracellular acidification rate,HepaRG cells [1]; over 2 weeks of treatment,no dose- or time-dependent increases
same,Extracellular L-lactate in cell supernatant,HepaRG cells [4],no significant increase in L-lactate
same,Bioenergetic parameters,HepG2 cells [5],no significant differences in bioenergetic parameters
same,"Total cellular protein, % of vehicle control",HepG2 cells [6]; galactose media,40.5 ± 13.4%
same,"Total cellular protein, % of vehicle control",HepG2 cells [6]; glucose media,49.0 ± 22.7%
same,Classification as mitotoxin,"HepG2 cells [6]; HepG2 cells, up to 3 days",cannot be classified as a mitotoxin
same,mtDNA replication,HepG2 cells [7],decreases
same,Adverse effects in clinical trial,patients; extended trial period,five deaths from acute liver failure
same,Time at which toxicity became apparent,patients; week of treatment,> 13 week
same,"mtDNA content, % of vehicle control","HepaRG cells [8]; 4 μM, week 1",59.2 ± 26.5%
same,"mtDNA content, % of vehicle control","HepaRG cells [8]; 10 μM, 1 week",23.5 ± 11.9%
same,"mtDNA content, % of vehicle control","HepaRG cells [8]; 10 μM, 4 weeks",5.8 ± 3.0%
same,Cmax,[9],600 nM
same,Mitochondrial copy number,HepG2 cells [10],no significant differences in mitochondrial copy number
same,Concentration at which toxic effects were observed,"HepaRG cells [2]; HepaRG, extended dosing, 2 weeks",around 10 μM
same,IC50,"HepaRG cells [2]; HepaRG, wk 3 exposure, galactose media, read-out: IC50-ATP ± S.D., Galactose",5.7 ± 2.8 µM
same,IC50,"HepaRG cells [2]; Homo sapiens, HepaRG, wk 1, galactose media, total cellular protein, read-out: IC50-viability ± S.D., Galactose",101 ± 27 µM
same,IC50,"HepaRG cells [2]; Homo sapiens, HepaRG, wk 1, glucose media, total cellular protein, read-out: IC50-viability ± S.D., Glucose",118 ± 42 µM
same,IC50,"HepaRG cells [2]; Homo sapiens, HepaRG, wk 1 exposure, galactose media, read-out: IC50-ATP ± S.D., Galactose",103 ± 13.8 µM
same,IC50,"HepaRG cells [2]; Homo sapiens, HepaRG, wk 1 exposure, glucose media, read-out: IC50-ATP ± S.D., Glucose",112 ± 32.8 µM
same,IC50,"HepaRG cells [2]; Homo sapiens, HepaRG, wk 2, galactose media, total cellular protein, read-out: IC50-viability ± S.D., Galactose",7.3 ± 3.8 µM
same,IC50,"HepaRG cells [2]; Homo sapiens, HepaRG, wk 2, glucose media, total cellular protein, read-out: IC50-viability ± S.D., Glucose",26.1 ± 9.3 µM
same,IC50,"HepaRG cells [2]; Homo sapiens, HepaRG, wk 2 exposure, glucose media, read-out: IC50-ATP ± S.D., Glucose",16.8 ± 2.3 µM
same,IC50,"HepaRG cells [2]; Homo sapiens, HepaRG, wk 3, galactose media, total cellular protein, read-out: IC50-viability ± S.D., Galactose",15.5 ± 3.4 µM
same,IC50,"HepaRG cells [2]; Homo sapiens, HepaRG, wk 3, glucose media, total cellular protein, read-out: IC50-viability ± S.D., Glucose",14.2 ± 1.3 µM
same,IC50,"HepaRG cells [2]; Homo sapiens, HepaRG, wk 3 exposure, galactose media, read-out: IC50-ATP ± S.D., Galactose",5 µM
same,IC50,"HepaRG cells [2]; Homo sapiens, HepaRG, wk 3 exposure, glucose media, read-out: IC50-ATP ± S.D., Glucose",5.4 ± 2.3 µM
same,IC50,"HepaRG cells [2]; Homo sapiens, HepaRG, wk 4, galactose media, total cellular protein, read-out: IC50-viability ± S.D., Galactose",3.6 ± 2.8 µM
same,IC50,"HepaRG cells [2]; Homo sapiens, HepaRG, wk 4, glucose media, total cellular protein, read-out: IC50-viability ± S.D., Glucose",7.6 ± 3.3 µM
same,IC50,"HepaRG cells [2]; Homo sapiens, HepaRG, wk 4 exposure, galactose media, read-out: IC50-ATP ± S.D., Galactose",7.3 ± 0.5 µM
same,IC50,"HepaRG cells [2]; Homo sapiens, HepaRG, wk 4 exposure, glucose media, read-out: IC50-ATP ± S.D., Glucose",4.9 ± 1.5 µM
same,Individual mean mitochondrial area,HepaRG cells [11],0.19 ± 0.01 μm^2
same,Number of mitochondria,HepaRG cells [11],0.80 ± 0.20 mitochondria/μm^2 of cytosol
same,"Complex I activity, % of vehicle control",[12]; 2 weeks,26.9 ± 6.9%
same,"Complex II activity, % of vehicle control",[12]; 2 weeks,35.5 ± 17.7%
same,"Complex IV activity, % of vehicle control",[12]; 2 weeks,36.0 ± 15.9%
same,"Complex I activity, % of vehicle control",[12]; week 1,67.4 ± 13.5%
same,"Complex II activity, % of vehicle control",[12]; week 1,70.3 ± 9.8%
same,TC50 (Toxicity Concentration),HepG2 cells [13],35 µM
